The values below come from patent publication US20230027985A1, “SUBSTITUTED HYDANTOINAMIDES AS ADAMTS7 ANTAGONISTS” (Bayer Aktiengesellschaft, priority 2019, published 2023).

One test deals with T1, ADAMTS4 (Homo sapiens, UniProt O75173).
T1 construct: purchased R&D 4307-AD
T1 sequence (O75173 213-685 limits assumed): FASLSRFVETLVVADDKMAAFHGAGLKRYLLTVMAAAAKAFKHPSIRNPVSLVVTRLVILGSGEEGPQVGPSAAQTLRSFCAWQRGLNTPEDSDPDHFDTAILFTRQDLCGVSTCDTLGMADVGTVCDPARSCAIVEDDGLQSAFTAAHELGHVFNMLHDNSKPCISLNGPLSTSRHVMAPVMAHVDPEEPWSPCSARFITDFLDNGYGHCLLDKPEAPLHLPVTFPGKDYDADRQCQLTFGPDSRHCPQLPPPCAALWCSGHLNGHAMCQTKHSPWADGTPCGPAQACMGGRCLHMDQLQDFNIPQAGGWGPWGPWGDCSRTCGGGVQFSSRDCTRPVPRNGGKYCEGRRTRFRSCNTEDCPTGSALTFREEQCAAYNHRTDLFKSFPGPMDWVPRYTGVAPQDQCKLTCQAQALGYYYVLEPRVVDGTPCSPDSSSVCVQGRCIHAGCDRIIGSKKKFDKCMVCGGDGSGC
Briefly: Selectivity assay for ADAMTS-7 modulators (FRET), ADAMTS4. In kind it is biochemical. The following applies: 50 nM enzyme (R&D 4307-AD), 1 μM Dabcyl/Edans FRET substrate, 120 min at 32° C. The protocol: The respective enzyme (see table 2 below) was diluted in reaction buffer (50 mM Tris, 2.5 μM ZnCl2, 0.05% BSA, 0.001% Brij, pH 7.5 for ADAM17; 50 mM Tris 7.5, 150 mM NaCl, 10 mM CaCl2, 0.05% Brij for all other enzymes) to the respective concentration and 25 μl were transferred into each well of a 384-well white microtiter plate (Greiner Bio One 781075). 1 μl test compound solution (dissolved in DMSO, at the corresponding concentration) or pure DMSO as a control was added per well. The enzymatic reaction was initiated by addition of 25 μl of the respective concentration of the respective FRET substrate (see table 2 below) in reaction buffer. The microtiter plate was incubated for 120 min at the temperature of 32° C. The increase of fluorescence intensity was measured in appropriate fluorescence plate reader (e.g. TECAN Ultra) using the respective wavelengths for excitation and emission. IC50 values were calculated from percentage of inhibition of enzyme activity as a function of test compound concentration.

In test [1] the target is T2, Purified recombinant ADAMTS-7 (rat prodomain/human catalytic domain, SEQ ID No. 01 or 02) (Homo sapiens, UniProt Q9UKP4).
T2 construct: rat ADAMTS-7 signal peptide + prodomain (rat 1-217, Q1EHB3) (N); 2xStrep tag (C); 6xHis tag (C); made in house; host or cells: Expi293 cells
T2 sequence (Q9UKP4 237-537): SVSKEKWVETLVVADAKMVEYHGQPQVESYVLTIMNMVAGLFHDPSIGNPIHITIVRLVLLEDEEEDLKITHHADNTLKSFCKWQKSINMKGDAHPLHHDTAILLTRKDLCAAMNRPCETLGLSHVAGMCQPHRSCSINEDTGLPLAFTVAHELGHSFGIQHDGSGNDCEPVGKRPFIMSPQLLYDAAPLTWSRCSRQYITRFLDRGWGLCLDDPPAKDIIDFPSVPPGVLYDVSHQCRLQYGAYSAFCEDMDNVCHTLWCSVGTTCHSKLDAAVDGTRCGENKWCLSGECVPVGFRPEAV
Briefly: Assay for ADAMTS-7 enzymatic activity (FRET substrate cleavage). In kind it is biochemical. The following applies: FRET substrate SEQ ID No. 11, 120 min at 32° C.; read-out: ADAMTS7-IC50. Here is the method: Purified recombinant ADAMTS-7 (as of SEQ ID No. 01 or SEQ ID No. 02) was diluted in reaction buffer (20 mM HEPES pH 8.0, 150 mM NaCl, 5 mM CaCl2, 0.004% Brij, 10 μM ZnCl2) fora concentration of approximately 20 nM. 25 μl of the solution were transferred into each well of a 384-well white microtiter plate (Greiner Bio-One 781075) and 1 μl test compound solution (modulator/inhibitor dissolved in DMSO, at the corresponding concentration) or pure DMSO as a control were added per well. […] Amino acids […] are derived from Thrombospondin-1 sequence (275-289). An additional carboxyl glutamic acid was added after the QXL520 quencher to increase substrate solubility. The microtiter plate was incubated for 120 min at the temperature of 32° C. The increase of fluorescence intensity was measured in appropriate fluorescence plate reader (e.g. TECAN Ultra) using excitation wavelength of 485 nm and emission wavelength of 520 nm. IC50 values were calculated from percentage of inhibition of ADAMTS-7 activity as a function of test compound concentration.

pIC50: −log10 of the molar value.

With `Cn1ccnc1C1(CNC(=O)c2cnn(-c3ccccc3)n2)NC(=O)NC1=O` (stereo not drawn) [Example 142, ent-N-{[4-(1-methyl-1H-imidazol-2-yl)-2,5-dioxoimidazolidin-4-yl]methyl}-2-phenyl-2H-1,2,3-triazole-4-carboxamide], the negative logarithm of the IC50 (pIC50) (in general, −log10 of the IC50, conventionally taken in molar units) is 6.49 against ADAMTS4 and 8.40 in test [1]. As for `N#Cc1cccc(-n2ncc(C(=O)NC[C@@]3(C4CC4)NC(=O)NC3=O)n2)c1` [Example 17, 2-(3-cyanophenyl)-N-{[(4R)-4-cyclopropyl-2,5-dioxoimidazolidin-4-yl]methyl}-2H-1,2,3-triazole-4-carboxamide], the pIC50 was 6.22 against ADAMTS4 and 7.49 in test [1]. As for `O=C1NC(=O)C(CNC(=O)c2cnn(-c3ccccc3)n2)(CC2CC2)N1` (racemic) [Example 54, rac-N-[(4-(cyclopropylmethyl)-2,5-dioxoimidazolidin-4-yl)methyl}]-2-phenyl-2H-1,2,3-triazole-4-carboxamide], the pIC50 is 4.60 at ADAMTS4 and 6.17 in test [1].

For `O=C1NC(=O)C(CNC(=O)c2cnn(-c3ccc(F)cc3)n2)(c2ccccc2)N1` (racemic) [Example 139, rac-N-[(2,5-dioxo-4-phenylimidazolidin-4-yl)methyl]-2-(4-fluorophenyl)-2H-1,2,3-triazole-4-carboxamide], the values for the pIC50 (at ADAMTS4; in test [1]) were below 4.30 and 7.16, respectively. Regarding `O=C1NC(=O)C(CNC(=O)c2cnn(-c3ccc(F)cc3F)n2)(C2CCC2)N1` (stereo not drawn) [Example 86, ent-N-{[4-cyclobutyl-2,5-dioxoimidazolidin-4-yl]methyl}-2-(2,4-difluorophenyl)-2H-1,2,3-triazole-4-carboxamide], the pIC50 against ADAMTS4 was 5.07; in test [1] it was 7.20.

Turning to `O=C1NC(=O)C(CNC(=O)c2cnn(-c3ccc(F)cc3)n2)(C2CCCC2)N1` (stereo not drawn) [Example 74, ent-N-[(4-cyclopentyl-2,5-dioxoimidazolidin-4-yl)methyl]-2-(4-fluorophenyl)-2H-1,2,3-triazole-4-carboxamide], the values for the pIC50 (on ADAMTS4; in test [1]) were 5.23 and 7.48, respectively. With `Cn1nccc1C1(CNC(=O)c2cnn(-c3ccc(F)cc3)n2)NC(=O)NC1=O` (racemic) [Example 127, rac-2-(4-fluorophenyl)-N-{[4-(1-methyl-1H-pyrazol-5-yl)-2,5-dioxoimidazolidin-4-yl]methyl}-2H-1,2,3-triazole-4-carboxamide], the pIC50 against ADAMTS4 is 5.62; in test [1], 8.00.

On to `O=C1NC(=O)[C@](CNC(=O)c2cnn(-c3cccc(Cl)c3)n2)(C2CC2)N1` [Example 10, 2-(3-chlorophenyl)-N-{[(4R)-4-cyclopropyl-2,5-dioxoimidazolidin-4-yl]methyl}-2H-1,2,3-triazole-4-carboxamide], for which the pIC50 against ADAMTS4 is 6.35; in test [1] it was 7.68.

`Cn1ccnc1C1(CNC(=O)c2cnn(-c3ccc(F)cc3)n2)NC(=O)NC1=O` (single isomer, unassigned; ent-2) [Example 144, ent-2-(4-fluorophenyl)-N-{[4-(1-methyl-1H-imidazol-2-yl)-2,5-dioxoimidazolidin-4-yl]methyl}-2H-1,2,3-triazole-4-carboxamide]: the pIC50 against ADAMTS4 was 6.89; in test [1], 8.70. For `O=C1NC(=O)[C@](CNC(=O)c2cnn(-c3ccccc3)n2)(C2CC2)N1` [Example 45, N-{[(4R)-4-cyclopropyl-2,5-dioxoimidazolidin-4-yl]methyl}-2-phenyl-2H-1,2,3-triazole-4-carboxamide] the same measures were 5.84 and 7.16. `O=C1NC(=O)C(CNC(=O)c2cnn(-c3ccc(F)cc3)n2)(c2ncsc2C2CC2)N1` (racemic) [Example 157, rac-N-{[4-(5-cyclopropyl-1,3-thiazol-4-yl)-2,5-dioxoimidazolidin-4-yl]methyl}-2-(4-fluorophenyl)-2H-1,2,3-triazole-4-carboxamide]: on ADAMTS4, the negative-log IC50 (pIC50) is 6.34.

For the molecule `O=C1NC(=O)[C@](CNC(=O)c2cnn(-c3ncccc3F)n2)(C2CC2)N1` [Example 101, N-{[(4R)-4-cyclopropyl-2,5-dioxoimidazolidin-4-yl]methyl}-2-(3-fluoropyridin-2-yl)-2H-1,2,3-triazole-4-carboxamide], the pIC50 against ADAMTS4 was 4.85; in test [1], 8.15.

Turning to `O=C1NC(=O)C(CNC(=O)c2cnn(-c3ccc(Cl)c(F)c3)n2)(C2CCC2)N1` (single isomer, unassigned; ent-2) [Example 89, ent-2-(4-chloro-3-fluorophenyl)-N-[(4-cyclobutyl-2,5-dioxoimidazolidin-4-yl)methyl]-2H-1,2,3-triazole-4-carboxamide], the pIC50 on ADAMTS4 is 6.01. Take `CC(C)(C)C1(CNC(=O)c2cnn(-c3ccc(C(F)(F)F)c(F)c3)n2)NC(=O)NC1=O` (racemic) [Example 2, rac-N-{[4-tert-butyl-2,5-dioxoimidazolidin-4-yl]methyl}-2-[3-fluoro-4-(trifluoromethyl)phenyl]-2H-1,2,3-triazole-4-carboxamide]: the pIC50 in test [1] is 6.68. In the case of `O=C1NC(=O)C(CNC(=O)c2cnn(-c3ccccc3)n2)(C2CCCC2)N1` (racemic) [Example 50, rac-N-[(4-cyclopentyl-2,5-dioxoimidazolidin-4-yl)methyl]-2-phenyl-2H-1,2,3-triazole-4-carboxamide], the pIC50 in test [1] is 6.72. Regarding `O=C1NC(=O)C(CNC(=O)c2cnn(-c3ccccc3)n2)(C2CCCCC2)N1` (racemic) [Example 53, rac-N-[(4-cyclohexyl-2,5-dioxoimidazolidin-4-yl)methyl]-2-phenyl-2H-1,2,3-triazole-4-carboxamide], the pIC50 in test [1] was 6.84. Consider `O=C1NC(=O)C(CNC(=O)c2cnn(-c3ccc(F)cc3)n2)(CC2CC2)N1` (racemic) [Example 64, rac-N-[4-(cyclopropylmethyl)-2,5-dioxoimidazolidin-4-yl)methyl]-2-(4-fluorophenyl)-2H-1,2,3-triazole-4-carboxamide], for which the pIC50 in test [1] is 6.62. Same read-out and setting: the figure for `C[C@@H](NC(=O)c1cnn(-c2ccccc2)n1)C1(C2CC2)NC(=O)NC1=O` (stereo partly drawn) [Example 39, ent-N-((1R)-1-(4-Cyclopropyl-2,5-dioxoimidazolidin-4-yl)ethyl)-2-phenyl-2H-1,2,3-triazole-4-carboxamide] is 6.15; for `O=C1NC(=O)C(CNC(=O)c2cnn(-c3ccc(F)cc3)n2)(C2CCCC2)N1` (racemic) [Example 66, rac-N-[(4-cyclopentyl-2,5-dioxoimidazolidin-4-yl]methyl]-2-(4-fluorophenyl)-2H-1,2,3-triazole-4-carboxamide] it is 6.42. On the same count and under the same terms, the figure for `O=C1NC(=O)C(CNC(=O)c2cnn(-c3ccc(F)cc3)n2)(c2ccccn2)N1` (single isomer, unassigned) [Example 138, ent-N-{[2,5-dioxo-4-(pyridin-2-yl)imidazolidin-4-yl]methyl}-2-(4-fluorophenyl)-2H-1,2,3-triazole-4-carboxamide] is 6.23; for `CC(C)(C)C1(CNC(=O)c2cnn(-c3ccc(C(F)(F)F)cc3)n2)NC(=O)NC1=O` (racemic) [Example 6, rac-N-[(4-tert-butyl-2,5-dioxoimidazolidin-4-yl)methyl]-2-[4-(trifluoromethyl)phenyl]-2H-1,2,3-triazole-4-carboxamide] it is 6.21.
